The values below come from patent publication US12172959B2, “Mono- or di-substituted indole derivatives as dengue viral replication inhibitors” (priority 2015, dated 2024).

Like-named read-outs stand apart in the source and are kept apart here.

One series deals with DENV-2 16681 strain. Description: DENV-2 antiviral assay (eGFP fluorescence, Vero cells). In kind it is cell-based, Dengue virus. The settings on record: DENV-2 16681 eGFP, MOI 0.5, 3 days. The procedure:
The antiviral activity of all the compounds of the invention was tested against the DENV-2 16681 strain which was labeled with enhanced green fluorescent protein (eGPF; Table 1). The culture medium consists of minimal essential medium supplemented with 2% of heat-inactivated fetal calf serum, 0.04% gentamycin (50 mg/mL) and 2 mM of L-glutamine. Vero cells, obtained from ECACC, were suspended in culture medium and 25 μL was added to 384-well plates (2500 cells/well), which already contain the antiviral compounds. Typically, these plates contain a 5-fold serial dilution of 9 dilution steps of the test compound at 200 times the final concentration in 100% DMSO (200 nL). […] Finally, each plate contains wells which are assigned as virus controls (containing cells and virus in the absence of compound), cell controls (containing cells in the absence of virus and compound) and medium controls (containing medium in the absence of cells, virus and compounds). To the wells assigned as medium control, 25 μL of culture medium was added instead of Vero cells. Once the cells were added to the plates, the plates were incubated for 30 minutes at room temperature to allow the cells to distribute evenly within the wells. Next, the plates were incubated in a fully humidified incubator (37° C., 5% CO2) until the next day. Then, DENV-2 strain 16681, labeled with eGFP, was added at a multiplicity of infection (MOI) of 0.5. Therefore, 15 μL of virus suspension was added to all the wells containing test compound and to the wells assigned as virus control. In parallel, 15 μL of culture medium was added to the medium and cell controls. Next, the plates were incubated for 3 days in a fully humidified incubator (37° C., 5% CO2). At the day of the read out, the eGFP fluorescence was measured using an automated fluorescence microscope at 488 nm (blue laser). Using an in-house LIMS system, inhibition dose response curves for each compound were calculated and the half maximal effective concentration (EC50) was determined. Therefore, the percent inhibition (I) for every test concentration is calculated using the following formula: I=100*(ST−SCC)/(SVC−SCC); ST, SCC and SVC are the amount of eGFP signal in the test compound, cell control and virus control wells, respectively. The EC50 represents the concentration of a compound at which the virus replication is inhibited with 50%, as measured by a 50% reduction of the eGFP fluorescent intensity compared to the virus control. The EC50 is calculated using linear interpolation.

Series [1] can be described thus: in vitro. The note with it: African green monkey.
A further series relates to DENV-1 strain TC974#666. Description: Tetravalent RT-qPCR assay Protocol A, serotype 1. The class given is cell-based. The settings on record: Dengue virus, DENV1, 72 h, RT-qPCR serotype 1 TC974#666, Vero cells, day 3. The procedure:
(§1) The antiviral activity of the compounds of the invention was tested against DENV-1 strain TC974#666 (NCPV; Table 6), DENV-2 strain 16681 (Table 7), DENV-3 strain H87 (NCPV; Table 8) and DENV-4 strains H241 (NCPV; Table 9A) and SG/06K2270DK1/2005 (Eden; Table 9B) in a RT-qPCR assay. Therefore, Vero cells were infected with either DENV-1, or -2, or -3, or -4 in the presence or absence of test compounds. At day 3 post-infection, the cells were lysed and cell lysates were used to prepare cDNA of both a viral target (the 3′UTR of DENV; Table 2) and a cellular reference gene (β-actin, Table 2). Subsequently, a duplex real time PCR was performed on a Lightcycler480 instrument. The generated Cp value is inversely proportional to the amount of RNA expression of these targets. Inhibition of DENV replication by test compound results in a shift of Cp's for the 3′UTR gene. On the other hand, if a test compound is toxic to the cells, a similar effect on β-actin expression will be observed. The comparative ΔΔCp method is used to calculate EC50, which is based on the relative gene expression of the target gene (3′UTR) normalized with the cellular housekeeping gene (β-actin).
(§2) The culture medium consisted of minimal essential medium supplemented with 2% of heat-inactivated fetal calf serum, 0.04% gentamycin (50 mg/mL) and 2 mM of L-glutamine. Vero cells, obtained from ECACC, were suspended in culture medium and 75 μL/well was added in 96-well plates (10000 cells/well), which already contain the antiviral compounds. […] In addition, each plate contains wells which are assigned as virus controls (containing cells and virus in the absence of compound) and cell controls (containing cells in the absence of virus and compound). Once the cells were added in the plates, the plates were incubated in a fully humidified incubator (37° C., 5% CO2) until the next day. Dengue viruses serotype-1, 2, 3 and 4 were diluted in order to obtain a Cp of ˜22-24 in the assay. Therefore, 25 μL of virus suspension was added to all the wells containing test compound and to the wells assigned as virus control. In parallel, 25 μL of culture medium was added to the cell controls. Next, the plates were incubated for 3 days in a fully humidified incubator (37° C., 5% CO2). After 3 days, the supernatant was removed from the wells and the cells were washed twice with ice-cold PBS (˜100 μL). The cell pellets within the 96-well plates were stored at −80° C. for at least 1 day. Next, RNA was extracted using the Cells-to-CT™ lysis kit, according to the manufacturer's guideline (Life Technologies). The cell lysates can be stored at −80° C. or immediately used in the reverse transcription step.
(§3) In preparation of the reverse transcription step, mix A (table 3A) was prepared and 7.57 μL/well was dispensed in a 96-well plate. After addition of 5 μL of the cell lysates, a five minute denaturation step at 75° C. was performed (table 3B). Afterwards, 7.43 μL of mix B was added (table 3C) and the reverse transcription step was initiated (table 3D) to generate cDNA.
(§4) Finally, a RT-qPCR mix was prepared, mix C (table 4A), and 22.02 μL/well was dispensed in 96-well LightCycler qPCR plates to which 3 μL of cDNA was added and the qPCR was performed according to the conditions in table 4B on a LightCycler 480.
(§5) Using the LightCycler software and an in-house LIMS system, dose response curves for each compound were calculated and the half maximal effective concentration (EC50) and the half maximal cytotoxic concentration (CC50) were determined.
For orientation: In qPCR the cycle at which signal appears reflects the starting amount.

The next series concerns DENV-2 strain 16681. Description: Tetravalent RT-qPCR assay Protocol A, serotype 2. The note with it: Dengue virus. In kind it is cell-based. The procedure:
as §1, §2, §3, §4, §5

The next series relates to DENV-3 strain H87. Description: Tetravalent RT-qPCR assay Protocol A, serotype 3. The class given is cell-based. The settings on record: Dengue virus, DENV3, 72 h, RT-qPCR serotype 3 H87, Vero cells, day 3. The procedure: as §1, §2, §3, §4, §5
For the next series, the system named is DENV-4 strain H241. Description: Tetravalent RT-qPCR assay Protocol A, serotype 4 H241. The class given is cell-based. The settings on record: Dengue virus. The procedure: as §1, §2, §3, §4, §5
Series [2] can be described thus: in vitro. The note with it: African green monkey, CC50. The class given is cell-based. The procedure: as §1, §2, §5
Another series deals with Vero cells. The note with it: African green monkey.
Setting [3] is: Dengue virus, DENV2, Vero, 72 h.
[4] abbreviates: DENV2, 72 h, Protocol A, RT-qPCR serotype 2 16681, Vero cells, day 3, read-out: EC50.
[5] abbreviates: DENV4, 72 h, Protocol A, RT-qPCR serotype 4 H241, Vero cells, day 3, read-out: EC50.

Take `COc1cc(NC(C(=O)c2c[nH]c3c(C)c(F)ccc23)c2ccc(Cl)cc2OC)cc(S(C)(=O)=O)c1` (racemic) [Compound 2, 2-(4-chloro-2-methoxyphenyl)-1-(6-fluoro-7-methyl-1H-indol-3-yl)-2-((3-methoxy-5-(methylsulfonyl)phenyl)amino)ethanone]: the concentration for a half-maximal effect (EC50) (in general, the midpoint of the concentration-response curve) with DENV-2 16681 strain (setting [3]) worked out at 0.6 nM. In the series “in vitro [1]”, this compound registered a CC50 of 5000 nM.

In the case of `COc1cc(NC(C(=O)c2c[nH]c3c(C)cc(OC(F)(F)F)cc23)c2ccc(Cl)cc2OC)cc(S(C)(=O)=O)c1` (single isomer, unassigned) [Compound 11A, 2-(4-chloro-2-methoxyphenyl)-2-((3-methoxy-5-(methylsulfonyl)phenyl)amino)-1-(7-methyl-5-(trifluoromethoxy)-1H-indol-3-yl)ethanone], the concentration giving a half-maximal response (EC50) in the series on DENV-2 16681 strain worked out at 0.085 nM; in the series on DENV-1 strain TC974#666, 0.13 nM; with DENV-2 strain 16681 (setting [4]) it was 0.051 nM; in the series on DENV-3 strain H87, 1.2 nM; with DENV-4 strain H241 (DENV4, Vero, 72 h), 11 nM. Further, the CC50 at 3 days in “in vitro [2]” is over 2500 nM. In addition, the CC50 with Vero cells was 2600 nM.

Take `COc1cc(NC(C(=O)c2c[nH]c3ccc(C(F)(F)F)cc23)c2ccc(Cl)cc2OC)cc(S(C)(=O)=O)c1` (single isomer, unassigned) [Compound 8B, 2-(4-chloro-2-methoxyphenyl)-2-((3-methoxy-5-(methyl-sulfonyl)phenyl)amino)-1-(5-(trifluoromethyl)-1H-indol-3-yl)ethanone]: the concentration giving a half-maximal response (EC50) in the series with DENV-2 16681 strain came out at 0.069 nM; in the series on DENV-1 strain TC974#666 it was 0.45 nM; with DENV-2 strain 16681 (DENV2, Vero, 72 h), 0.31 nM; in the series with DENV-3 strain H87 it was 5.8 nM; in the series on DENV-4 strain H241 (setting [5]), 15 nM. Moreover, in the series “in vitro [2]”, the CC50 at 3 days is 1900 nM. In the series with Vero cells, this compound came in with a CC50 of 3400 nM.

With `COc1cc(NC(C(=O)c2c[nH]c3cc(F)c(C)cc23)c2ccc(Cl)cc2OC)cc(S(C)(=O)=O)c1` (single isomer, unassigned) [Compound 7B, 2-(4-chloro-2-methoxyphenyl)-1-(6-fluoro-5-methyl-1H-indol-3-yl)-2-((3-methoxy-5-(methylsulfonyl)phenyl)amino)ethanone], the 50% effective concentration (EC50) with DENV-2 16681 strain worked out at 0.2 nM; in the series on DENV-1 strain TC974#666, 0.4 nM; in the series on DENV-2 strain 16681 (setting [4]), 0.17 nM; in the series on DENV-3 strain H87, 7.8 nM; in the series on DENV-4 strain H241 (setting [5]) it was 44 nM. The compound also registered a CC50 at 3 days in “in vitro [2]” of 2200 nM. The compound further displayed a CC50 in the series with Vero cells of 3200 nM.

`COc1cc(NC(C(=O)c2c[nH]c3ccc(C(F)(F)F)cc23)c2ccc(Cl)cc2OC)cc(S(C)(=O)=O)c1` (racemic) [Compound 8, 2-(4-chloro-2-methoxyphenyl)-2-((3-methoxy-5-(methyl-sulfonyl)phenyl)amino)-1-(5-(trifluoromethyl)-1H-indol-3-yl)ethanone] showed an EC50 with DENV-2 16681 strain (setting [3]) of 0.13 nM. Besides, the CC50 in the series “in vitro [1]” is 2900 nM.

As to `COc1cc(NC(C(=O)c2c[nH]c3ccc(OC(F)(F)F)cc23)c2ccc(Cl)cc2OC)cc(S(C)(=O)=O)c1` (racemic) [Compound 9, 2-(4-chloro-2-methoxyphenyl)-2-((3-methoxy-5-(methyl-sulfonyl)phenyl)amino)-1-(5-(trifluoromethoxy)-1H-indol-3-yl)ethanone], the 50% effective concentration (EC50) in the series with DENV-2 16681 strain (setting [3]) is 0.074 nM. The CC50 in “in vitro [1]” worked out at 3100 nM.

For `COc1cc(NC(C(=O)c2c[nH]c3cc(F)c(C)cc23)c2ccc(Cl)cc2OC)cc(S(C)(=O)=O)c1` (racemic) [Compound 7, 2-(4-chloro-2-methoxyphenyl)-1-(6-fluoro-5-methyl-1H-indol-3-yl)-2-((3-methoxy-5-(methylsulfonyl)phenyl)amino)ethanone], in the series with DENV-2 16681 strain (setting [3]), the 50% effective concentration (EC50) was 0.47 nM. In the series “in vitro [1]”, this compound gave a CC50 of 3200 nM.

Turning to `COc1cc(NC(C(=O)c2c[nH]c3ccc(OC(F)(F)F)cc23)c2ccc(Cl)cc2OC)cc(S(C)(=O)=O)c1` (single isomer, unassigned) [Compound 9A, 2-(4-chloro-2-methoxyphenyl)-2-((3-methoxy-5-(methyl-sulfonyl)phenyl)amino)-1-(5-(trifluoromethoxy)-1H-indol-3-yl)ethanone], the concentration for a half-maximal effect (EC50) with DENV-2 16681 strain was determined as 0.067 nM; with DENV-1 strain TC974#666, 0.11 nM; with DENV-2 strain 16681 (setting [4]), 0.057 nM; in the series with DENV-3 strain H87, 2.1 nM; in the series with DENV-4 strain H241 (setting [5]), 12 nM. Besides, in the series “in vitro [2]”, the CC50 at 3 days is 1700 nM. Besides, the CC50 in the series with Vero cells is 2900 nM.

Compound `COc1cc(NC(C(=O)c2c[nH]c3cc(OC)ccc23)c2ccc(Cl)cc2OC)cc(S(C)(=O)=O)c1` (racemic) [Compound 3, 2-(4-chloro-2-methoxyphenyl)-1-(6-methoxy-1H-indol-3-yl)-2-((3-methoxy-5-(methylsulfonyl)phenyl)amino)ethanone] gave a half-maximal effective concentration (EC50) with DENV-2 16681 strain (setting [3]) of 0.58 nM. The compound also registered a CC50 in “in vitro [1]” of over 11000 nM.

With `COc1cc(NC(C(=O)c2c[nH]c3cc(OC)c(F)cc23)c2ccc(Cl)cc2OC)cc(S(C)(=O)=O)c1` (racemic) [Compound 5, 2-(4-chloro-2-methoxyphenyl)-1-(5-fluoro-6-methoxy-1H-indol-3-yl)-2-((3-methoxy-5-(methylsulfonyl)phenyl)amino)ethanone], in the series on DENV-2 16681 strain (setting [3]), the EC50 stood at 0.62 nM. In addition, the CC50 in the series “in vitro [1]” was 5500 nM.

For `COc1cc(NC(C(=O)c2c[nH]c3cc(OC)c(C)cc23)c2ccc(Cl)cc2OC)cc(S(C)(=O)=O)c1` (racemic) [Compound 4, 2-(4-chloro-2-methoxyphenyl)-2-((3-methoxy-5-(methyl-sulfonyl)phenyl)amino)-1-(6-methoxy-5-methyl-1H-indol-3-yl)ethanone], the response in the series on DENV-2 16681 strain (setting [3]) was half-maximal at 0.39 nM (EC50). In addition, in the series “in vitro [1]”, the CC50 stood at 5900 nM.
